For 3 compounds, IC50 and viability, T/C results are on record in PubChem BioAssay AID1845205 (Molecular Pharmacology Branch, DTP, NCI, 2023).

SMILES strings stand for the structures. Where “and” joins values, the source holds several entries; their conditions need not be identical. Equal entries are not always repeated. Where only a bound is given, the exact number is not on record here.

This test concerns MPNST multicellular tumor spheroids, viability % test/control. The experiment in a line: Anticancer human tumor MPNST cell line growth inhibition.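 On all read-outs here: spheroids exposed to agents for seven days after three days of growth.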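 On viability, T/C: luminescence signal used as surrogate for viable cell amount.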 The conditions noted are these: for viability, T/C: stronger effect = lower value. The source says:
Multicellular complex tumor spheroid response to DNA repair inhibitors in combination with DNA-damaging drugs
This study explores the anticancer activities of DNA-damaging drugs and inhibitors of DNA damage repair, both as single agents and in combinations. Complex tumor spheroids comprised of malignant cells, endothelial cells and mesenchymal stem cells served as an in vitro model for human solid tumors. This model system incorporates physiologically relevant features and patient-derived or established malignant cell lines with clinically relevant genetic alterations from many tumor types. Twenty-six patient-derived or established malignant cell lines were evaluated representing sarcoma, melanoma, small cell lung cancer (SCLC), non-small cell lung cancer (NSCLC), as well as bladder, ovarian and pancreatic cancers. The concentration ranges selected for each drug and investigational agent were based upon clinically achievable concentrations if the clinical Cmax of the agent was known.
Compounds. The drugs and compounds olaparib (NSC753686), talazoparib (NSC767125), berzosertib (NSC777718), elimusertib (NSC800525), nedisertib (NSC802822), VX-984 (NSC792969), AZD-1390 (NSC803789), temozolomide (NSC362856), topotecan (NSC609699), trabectedin (NSC813783), staurosporine (NSC755774), and gemcitabine (NSC613327) were obtained from the National Cancer Institute (NCI) Developmental Therapeutics Program Chemical Repository. The FDA-approved anticancer drug set is available from the Developmental Therapeutics Program at https://dtp.cancer.gov/organization/dscb/obtaining/available_plates.htm. […] The stock solutions were prepared in dimethyl sulfoxide (DMSO, Sigma-Aldrich, St. Louis, MO, cat. D2650) at 400-fold the tested concentration and stored at -70 degrees C. Prior to their use, the stock solutions were diluted in fresh medium and the final DMSO concentration in the assay was 0.25% (v/v). All drugs and investigational agents were tested over a range starting from a high concentration at or near the clinical Cmax and decreasing in half-log increments. If the clinical Cmax for an agent had not been determined, the highest concentration tested was 10 microM.
Cell Lines. The patient-derived cancer cell (PDC) lines: 156681-154-R-J1-PDC, 283228-195-R-J1-PDC, 287954-098-R-J1-PDC, 292921-168-R-J2-PDC, 349418-098-R-PDC, 425362-245-T-J1-PDC, 556581-035-R-J1-PDC, and BL0293-F563-PDC were received from the NCI Patient-Derived Models Repository (PDMR, https://pdmr.cancer.gov). The established cell lines HS-SY-2 (RRID:CVCL_8719), MPNST, and SYO-1 (RRID:CVCL_7146) were obtained from the Sloan Kettering Institute. The alveolar soft parts sarcoma cell line ASPS-1 (RRID:CVCL_S738) was established at the NCI and grown from internal seed stocks. The following established cell lines were purchased from the American Type Culture Collection (ATCC, Manassas, VA): G-401 (ATCC, cat. CRL-1441, RRID:CVCL_0270), SW982 (ATCC, cat. HTB-93, RRID:CVCL_1734), VA-ES-BJ (ATCC, cat. CRL-2138, RRID:CVCL_1785), NCI-H719 (ATCC, cat. CRL-5837, RRID:CVCL_1582), NCI-H196 (ATCC, cat. CRL-5823, RRID:CVCL_1509), NCI-H841 (ATCC, cat. CRL-5845, RRID:CVCL_1595), NCI-H1618 (ATCC, cat. CRL-5879, RRID:CVCL_1480), NCI-H1876 (ATCC, cat. CRL-5902, RRID:CVCL_1503), DMS 114 (ATCC, cat. CRL-2066; RRID:CVCL_1174), NCI-H211 (ATCC, cat. CRL-5824; RRID:CVCL_1529), and SW 1271 (ATCC, cat. CRL-2177, RRID:CVCL_1716). The small cell lung cancer cell line COR-L88 was purchased from Sigma-Aldrich (cat. 92031917-1VL, RRID:CVCL_1141). The non-small cell lung cancer cell lines NCI-H226 (RRID:CVCL_1544) and NCI-H322M (RRID:CVCL_1557) were established at the NCI and grown from internal seed stocks. Pooled donor human umbilical vein endothelial cells (HUVEC, Lonza, cat. CC-2519) and human mesenchymal stem cells (hMSC, Lonza, cat. PT-2501) were purchased from Lonza (Walkersville, MD).
Cell Culture. All cells were maintained in an incubator at 37 degrees C and 5% CO2 with 95% humidity. […]

For orientation: IC50 means the midpoint of a concentration-inhibition curve. As for `Cn1nnc2c(C(N)=O)ncn2c1=O`, the IC50 (compound alone, run of 11/07/2019) was > 100 µM and 30.7 µM.
As a reminder, the viability, T/C is the result in the treated group divided by that in the control group, in per cent. Turning to `Cc1cc(C)c(CNC(=O)c2cc(-c3ccc(CN4CCOCC4)cc3)cc3c2cnn3C2CCCC2)c(=O)[nH]1` + Cn1nnc2c(C(N)=O)ncn2c1=O, the IC50 is, setting by setting: (curve of first compound, second compound 1 µM) greater than 10 µM; (curve of first compound, second compound 3.16 µM) greater than 10 µM; (curve of first compound, second compound 10 µM) greater than 10 µM; (curve of first compound, second compound 31.6 µM) greater than 10 µM; (curve of first compound, second compound 100 µM) greater than 10 µM. In addition, the viability, T/C runs as follows: (second compound 1 µM, first compound 0.0316 µM) 95.9%; (second compound 1 µM, first compound 0.1 µM) 82.8%; (second compound 1 µM, first compound 0.316 µM) 101%; (second compound 1 µM, first compound 1 µM) 92.7%; (second compound 1 µM, first compound 3.16 µM) 115%; (second compound 1 µM, first compound 10 µM) 98.6%. Also, the viability, T/C is 141% (second compound 3.16 µM, first compound 0.0316 µM); 96.7% (second compound 3.16 µM, first compound 0.1 µM); 116% (second compound 3.16 µM, first compound 0.316 µM); 109% (second compound 3.16 µM, first compound 1 µM); 103% (second compound 3.16 µM, first compound 3.16 µM); 104% (second compound 3.16 µM, first compound 10 µM). Besides, the viability, T/C was 75.3% (second compound 10 µM, first compound 0.0316 µM); 90.9% (second compound 10 µM, first compound 0.1 µM); 107% (second compound 10 µM, first compound 0.316 µM); 91% (second compound 10 µM, first compound 1 µM); 109% (second compound 10 µM, first compound 3.16 µM); 103% (second compound 10 µM, first compound 10 µM). In addition, the viability, T/C reads like this: (second compound 31.6 µM, first compound 0.0316 µM) 103%; (second compound 31.6 µM, first compound 0.1 µM) 85.8%; (second compound 31.6 µM, first compound 0.316 µM) 111%; (second compound 31.6 µM, first compound 1 µM) 107%; (second compound 31.6 µM, first compound 3.16 µM) 103%; (second compound 31.6 µM, first compound 10 µM) 99.5%. Further, the viability, T/C is, setting by setting: (second compound 100 µM, first compound 0.0316 µM) 99.1%; (second compound 100 µM, first compound 0.1 µM) 97.5%; (second compound 100 µM, first compound 0.316 µM) 96.9%; (second compound 100 µM, first compound 1 µM) 109%; (second compound 100 µM, first compound 3.16 µM) 97.9%; (second compound 100 µM, first compound 10 µM) 88.4%.
In the case of `COc1cc(C)[nH]c(=O)c1CN1CCc2c(Cl)cc(C(OC)C3COC3)c(Cl)c2C1=O` (stereo unspecified) + COc1cc2c(cc1O)CCNC21CSC2c3c(OC(C)=O)c(C)c4c(c3C(COC1=O)N1C(O)C3Cc5cc(C)c(OC)c(O)c5C(C21)N3C)OCO4, the IC50 is greater than 10 µM (curve of first compound, second compound 30 pM); greater than 10 µM (curve of first compound, second compound 94.9 pM); greater than 10 µM (curve of first compound, second compound 0.0003 µM); less than 0.0316 µM (curve of first compound, second compound 0.000949 µM); less than 0.0316 µM (curve of first compound, second compound 0.003 µM). The viability, T/C by setting is: (second compound 30 pM, first compound 0.0316 µM) 73.7%; (second compound 30 pM, first compound 0.1 µM) 77.4%; (second compound 30 pM, first compound 0.316 µM) 74.5%; (second compound 30 pM, first compound 1 µM) 84.8%; (second compound 30 pM, first compound 3.16 µM) 81%; (second compound 30 pM, first compound 10 µM) 90.3%. The viability, T/C was 94.7% (second compound 94.9 pM, first compound 0.0316 µM); 78.4% (second compound 94.9 pM, first compound 0.1 µM); 86.4% (second compound 94.9 pM, first compound 0.316 µM); 77.5% (second compound 94.9 pM, first compound 1 µM); 83.2% (second compound 94.9 pM, first compound 3.16 µM); 69.9% (second compound 94.9 pM, first compound 10 µM). Further, the viability, T/C (second compound 0.0003 µM, first compound 0.0316 µM) is 79%; the viability, T/C (second compound 0.0003 µM, first compound 0.1 µM) was 68.8%; the viability, T/C (second compound 0.0003 µM, first compound 0.316 µM) was 91.7%; the viability, T/C (second compound 0.0003 µM, first compound 1 µM) was 82.5%; the viability, T/C (second compound 0.0003 µM, first compound 3.16 µM) was 69.8%; the viability, T/C (second compound 0.0003 µM, first compound 10 µM) was 60.6%. Moreover, the viability, T/C (second compound 0.000949 µM, first compound 0.0316 µM) is 47.6%; the viability, T/C (second compound 0.000949 µM, first compound 0.1 µM) is 46%; the viability, T/C (second compound 0.000949 µM, first compound 0.316 µM) is 45.3%; the viability, T/C (second compound 0.000949 µM, first compound 1 µM) was 42.8%; the viability, T/C (second compound 0.000949 µM, first compound 3.16 µM) was 42.6%; the viability, T/C (second compound 0.000949 µM, first compound 10 µM) was 45.4%. For the same compound, the viability, T/C is, setting by setting: (second compound 0.003 µM, first compound 0.0316 µM) 9.08%; (second compound 0.003 µM, first compound 0.1 µM) 11.7%; (second compound 0.003 µM, first compound 0.316 µM) 12.8%; (second compound 0.003 µM, first compound 1 µM) 5.61%; (second compound 0.003 µM, first compound 3.16 µM) 7.75%; (second compound 0.003 µM, first compound 10 µM) 6.1%.
